Publication PMC3756062, “Identification of Putative Steroid Receptor Antagonists in Bottled Water: Combining Bioassays and High-Resolution Mass Spectrometry” (PLoS ONE, 2013)
pIC50: −log10 of the molar value.

Legend:
human androgen receptor = target: T1, human androgen receptor (Homo sapiens, UniProt P10275); assay: Yeast Antiandrogen Screen (YAAS), reporter gene assay; format: cell-based; conditions: coincubated with 2.5 nM testosterone; for pIC50: authentic standards 300 nM to 1 mM in ethanol, 24 h, three experiments, four-parameter logistic function, read-out: IC50, antiandrogenic in the YAAS
T1 construct: expressed in transfected cells
T1 sequence (P10275 1-920): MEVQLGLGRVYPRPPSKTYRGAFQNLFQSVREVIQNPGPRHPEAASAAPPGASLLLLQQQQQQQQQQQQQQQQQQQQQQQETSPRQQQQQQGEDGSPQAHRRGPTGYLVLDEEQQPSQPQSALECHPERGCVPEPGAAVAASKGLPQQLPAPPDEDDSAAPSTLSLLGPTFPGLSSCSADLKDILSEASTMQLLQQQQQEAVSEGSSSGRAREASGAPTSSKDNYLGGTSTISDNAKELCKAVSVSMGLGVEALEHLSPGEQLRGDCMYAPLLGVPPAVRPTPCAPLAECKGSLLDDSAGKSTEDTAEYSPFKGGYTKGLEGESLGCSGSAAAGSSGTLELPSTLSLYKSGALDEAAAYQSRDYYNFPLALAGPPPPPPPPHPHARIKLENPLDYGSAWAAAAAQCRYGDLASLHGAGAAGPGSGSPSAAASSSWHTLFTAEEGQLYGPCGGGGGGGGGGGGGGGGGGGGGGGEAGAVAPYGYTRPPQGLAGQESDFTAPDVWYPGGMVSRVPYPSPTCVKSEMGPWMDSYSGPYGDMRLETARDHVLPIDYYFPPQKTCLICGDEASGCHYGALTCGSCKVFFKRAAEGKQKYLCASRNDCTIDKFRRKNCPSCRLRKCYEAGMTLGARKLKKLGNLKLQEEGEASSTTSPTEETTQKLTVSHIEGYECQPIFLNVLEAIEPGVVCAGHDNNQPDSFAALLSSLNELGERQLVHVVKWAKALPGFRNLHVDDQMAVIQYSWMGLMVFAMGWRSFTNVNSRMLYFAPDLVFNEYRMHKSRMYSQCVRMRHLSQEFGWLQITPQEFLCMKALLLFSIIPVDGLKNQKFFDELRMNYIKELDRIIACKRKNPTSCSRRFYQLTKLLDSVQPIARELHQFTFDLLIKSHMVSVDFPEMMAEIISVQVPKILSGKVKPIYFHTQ
Procedure: (§1) The antiestrogenic and antiandrogenic activity of bottled water extracts was evaluated in reporter gene assays for human estrogen receptor alpha (Yeast Antiestrogen Screen, YAES) and human androgen receptor (Yeast Antiandrogen Screen, YAAS). To detect antagonists, Yeast Estrogen Screen and Yeast Androgen Screen were modified to analyze samples in the presence of the endogenous ligand of each receptor (17β-estradiol, testosterone). Receptor antagonists present in the sample cause a displacement of the endogenous ligand resulting in a decreased reporter gene signal.
(§2) The general assay procedures have been described previously, [24]. Briefly, SPE extracts were diluted 480 fold in assay medium and coincubated with 30 pM 17β-estradiol (YAES) or 2.5 nM testosterone (YAAS) dissolved in ethanol. Negative controls, solvent controls (ethanol and DMSO) with and without endogenous ligand, and positive controls (ligand coincubated with a known receptor antagonist, YAES: 80 µM hydroxytamoxifen, YAAS: 50 µM flutamide) were included in each experiment. The maximum solvent concentration was 0.4% v/v in all cases. Samples were analyzed in eight replicates, controls in 8–48 replicates. After 24 hours incubation at 30°C turbidity was read to assess cytotoxicity and β-galactosidase activity was determined. Samples from three extractions were tested in three independent YAES and YAAS experiments each.
(§3) Inhibition data is reported as means of three SPE extracts per sample analyzed in three experiments (with eight replicates each) resulting in a sample size of 63–72. The reported antagonistic activity corresponds to a sample volume equivalent to 3.75 mL bottled water.
Chemicals with best matching fragmentation and plausible structure (DEHM, DOM, DEHF, DOF) were purchased as authentic standards. Their antiestrogenic and antiandrogenic activity was evaluated in the bioassays (three experiments) as described above in concentrations ranging from 300 nM to 1 mM (in ethanol).

[1] = target: T2, human estrogen receptor alpha (Homo sapiens, UniProt P03372); assay: Yeast Antiestrogen Screen (YAES), reporter gene assay; format: cell-based; conditions: coincubated with 30 pM 17β-estradiol; for pIC50: authentic standards 300 nM to 1 mM in ethanol, 24 h, three experiments, four-parameter logistic function, read-out: IC50, antiestrogenic in the YAES
T2 construct: expressed in transfected cells
T2 sequence (P03372 1-595): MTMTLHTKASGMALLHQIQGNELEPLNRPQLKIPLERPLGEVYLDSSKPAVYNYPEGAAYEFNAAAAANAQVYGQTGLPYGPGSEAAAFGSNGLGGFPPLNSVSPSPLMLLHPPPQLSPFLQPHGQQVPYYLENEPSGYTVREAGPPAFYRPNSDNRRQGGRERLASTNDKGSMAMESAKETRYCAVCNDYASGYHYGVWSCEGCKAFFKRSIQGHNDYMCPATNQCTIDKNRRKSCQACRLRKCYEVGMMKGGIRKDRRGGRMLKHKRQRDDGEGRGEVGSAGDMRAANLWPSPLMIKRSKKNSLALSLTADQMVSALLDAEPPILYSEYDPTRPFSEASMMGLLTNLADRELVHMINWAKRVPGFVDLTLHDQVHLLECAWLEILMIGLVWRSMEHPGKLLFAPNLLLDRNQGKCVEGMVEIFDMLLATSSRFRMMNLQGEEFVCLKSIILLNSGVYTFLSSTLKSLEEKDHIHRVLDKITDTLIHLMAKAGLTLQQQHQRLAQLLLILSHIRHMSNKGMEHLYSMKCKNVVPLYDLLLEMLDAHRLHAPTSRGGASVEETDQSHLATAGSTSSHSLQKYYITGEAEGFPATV
Procedure: as §1, §2, §3
Their antiestrogenic and antiandrogenic activity was evaluated in the bioassays (three experiments) as described above in concentrations ranging from 300 nM to 1 mM (in ethanol).

| antiandrogenic activity in the YAAS (result in words) (human androgen receptor) | pIC50 [1] | antiestrogenic activity in the YAES (result in words) [1] | pIC50 (human androgen receptor) | Structure (SMILES) |
| --- | --- | --- | --- | --- |
| inactive |  |  |  | CCCCC(CC)COC(=O)/C=C/C(=O)OCC(CC)CCCC (stereo not shown) [DEHF, 2-Butenedioic acid (2E)-, 1,4-bis(2-ethylhexyl) ester] |
| inactive |  |  |  | CCCCC(CC)COC(=O)/C=C\C(=O)OCC(CC)CCCC (stereo not shown) [DEHM, 2-Butenedioic acid (2Z)-, 1,4-bis(2-ethylhexyl) ester] |
| partially | 4.45 | partially | 4.80 | CCCCCCCCOC(=O)/C=C/C(=O)OCCCCCCCC [DOF, 2-Butenedioic acid (2E)-, 1,4-dioctyl ester] |
| at high concentrations | 3.97 | at high concentrations | 3.61 | CCCCCCCCOC(=O)/C=C\C(=O)OCCCCCCCC [DOM, 2-Butenedioic acid (2Z)-, 1,4-dioctyl ester] |
